Measured values reported in patent publication US4206215A, “Antimicrobial bis-[4-(substituted-amino)-1-pyridinium]alkanes” (Sterling Drug Inc., priority 1977, dated 1980).
Read-outs that look alike come from different tables or passages of the source.

Experiments:
S. Aureus Smith = test: In vitro antibacterial activity, MIC (modified Autotiter method); type: cell-based, Staphylococcus aureus; details: Staphylococcus aureus, 20 h, read-out: MIC S. Aureus Smith
Summary of the method: (§1)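 Steps: prepare compound at 1,000 mcg./ml.; load first cup; instrument transfers and halves concentration serially into sterile water; inoculated double-strength semisynthetic glucose medium added to every cup. Final concentrations 500 to 0.06 mcg./ml.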

E. coli 100/B22 = test: as above; type: cell-based, Escherichia coli; details: Escherichia coli, 100/B22, 20 h
Summary of the method: as §1

E. coli AB1932-1 = test: as above; type: cell-based, Escherichia coli; details: Escherichia coli, AB19321, 20 h, read-out: MIC E. coli AB1932-1
Summary of the method: as §1

E. coli Vogel = test: as above; type: cell-based, Escherichia coli; details: Escherichia coli, 20 h, read-out: MIC E. coli Vogel
Summary of the method: as §1

K. pneum. 39645 = test: as above; type: cell-based, Klebsiella pneumoniae; details: Klebsiella pneumoniae, 20 h, read-out: MIC K. pneum. 39645
Summary of the method: as §1

P. mirab. MGH-1 = test: as above; type: cell-based, Proteus mirabilis; details: Proteus mirabilis, 20 h, read-out: MIC P. mirab. MGH-1
Summary of the method: as §1

Ps. aerug. MGH-2 = test: as above; type: cell-based, Pseudomonas aeruginosa; details: Pseudomonas aeruginosa, 20 h, read-out: MIC Ps. aerug. MGH-2
Summary of the method: as §1

S. pyogen. C203 = test: as above; type: cell-based, Streptococcus pyogenes; details: Streptococcus pyogenes, 20 h, read-out: MIC S. pyogen. C203
Summary of the method: as §1

A. niger 16404 = test: In vitro antifungal activity, MIC (modified Autotiter method); type: cell-based, Aspergillus niger; details: Aspergillus niger, 16404, 20 h, read-out: MIC A. niger 16404
Summary of the method: as §1

C. albicans 10231 = test: as above; type: cell-based, Candida albicans; details: Candida albicans, 10231, 20 h, read-out: MIC C. albicans 10231
Summary of the method: as §1

C. albicans Wisc. = test: as above; type: cell-based, Candida albicans; details: Candida albicans, 20 h, read-out: MIC C. albicans Wisc.
Summary of the method: as §1

T. menta. 9129 = test: as above; type: cell-based, Trichophyton mentagrophytes; details: Trichophyton mentagrophytes, 20 h, read-out: MIC T. menta. 9129
Summary of the method: as §1

[1] = 18-20 hours at 37° C., read-out: MIC E. coli 100/B22

SMILES | MIC (S. Aureus Smith; 18-20 hours at 37° C.) | MIC (E. coli 100/B22; [1]) | MIC (E. coli AB1932-1; 18-20 hours at 37° C.) | MIC (E. coli Vogel; 18-20 hours at 37° C.) | MIC (K. pneum. 39645; 18-20 hours at 37° C.) | MIC (P. mirab. MGH-1; 18-20 hours at 37° C.) | MIC (Ps. aerug. MGH-2; 18-20 hours at 37° C.) | MIC (S. pyogen. C203; 18-20 hours at 37° C.) | MIC (A. niger 16404; 18-20 hours at 37° C.) | MIC (C. albicans 10231; 18-20 hours at 37° C.) | MIC (C. albicans Wisc.; 18-20 hours at 37° C.) | MIC (T. menta. 9129; 18-20 hours at 37° C.) | other results
CCCCCCCCCCCCNc1cc[n+](CCCCCCCCCC[n+]2ccc(NCCCCCCCCCCCC)cc2)cc1 [Example 74, 1,10-bis-[4-(dodecylamino)-1-pyridinium]decane dibromide] | 15.6 µg/mL | > 62.5 µg/mL | > 62.5 µg/mL | > 62.5 µg/mL | > 62.5 µg/mL | > 62.5 µg/mL | > 62.5 µg/mL | 15.6 µg/mL | > 62.5 µg/mL | > 62.5 µg/mL | > 62.5 µg/mL | 15.6 µg/mL | 
CCCCCCCCCCCCNc1cc[n+](CCCCCCCCCCCC[n+]2ccc(NCCCCCCCCCCCC)cc2)cc1 [Example 75, 1,12-bis-[4-(dodecylamino)-1-pyridinium]dodecane dibromide] | 31.3 µg/mL | > 62.5 µg/mL | > 62.5 µg/mL | > 62.5 µg/mL | > 62.5 µg/mL | > 62.5 µg/mL | > 62.5 µg/mL | 15.6 µg/mL | > 62.5 µg/mL | > 62.5 µg/mL | > 62.5 µg/mL | 15.6 µg/mL | 
Clc1ccc(Nc2cc[n+](CCCC[n+]3ccc(Nc4ccc(Cl)cc4)cc3)cc2)cc1 [Example 76C, 1,4-bis-[4-(p-chlorophenylamino)-1-pyridinium]butane dimethanesulfonate] | 7.8 µg/mL | 15.6 µg/mL | 7.8 µg/mL | 15.6 µg/mL | > 250 µg/mL | > 250 µg/mL | > 125 µg/mL | 1.95 µg/mL | > 250 µg/mL | 125 µg/mL | 12.5 µg/mL | 62.5 µg/mL | 
Clc1ccc(Nc2cc[n+](CCCCCC[n+]3ccc(Nc4ccc(Cl)cc4)cc3)cc2)cc1 [Example 77B, 1,6-bis-[4-(p-chlorophenylamino)-1-pyridinium]hexane dimethanesulfonate] | 3.9 µg/mL | 15.6 µg/mL | 3.9 µg/mL | 15.6 µg/mL | 500 µg/mL | 500 µg/mL | 500 µg/mL | 1.95 µg/mL | 62.5 µg/mL | 62.5 µg/mL | 125 µg/mL | 15.6 µg/mL | 
Clc1ccc(Nc2cc[n+](CCCCCCCC[n+]3ccc(Nc4ccc(Cl)cc4)cc3)cc2)cc1 [Example 78B, 1,8-bis-[4-(p-chlorophenylamino)-1-pyridinium]octane dimethanesulfonate] | 0.4 µg/mL | 3.1 µg/mL | 1.6 µg/mL | 3.1 µg/mL | 31.3 µg/mL | 125 µg/mL | 125 µg/mL | 0.2 µg/mL | 31.3 µg/mL | 62.5 µg/mL | 62.5 µg/mL | 31.3 µg/mL | 
Clc1ccc(Nc2cc[n+](CCCCC[n+]3ccc(Nc4ccc(Cl)cc4)cc3)cc2)cc1 [Example 80, 1,5-bis-[4-(p-chlorophenylamino)-1-pyridinium]pentane dibromide] | 7.8 µg/mL | 125 µg/mL | 31.3 µg/mL | 125 µg/mL | > 125 µg/mL | > 125 µg/mL | > 125 µg/mL | 1.95 µg/mL | 62.5 µg/mL | 62.5 µg/mL | 62.5 µg/mL | 15.6 µg/mL | 
Fc1ccc(Nc2cc[n+](CCCCCC[n+]3ccc(Nc4ccc(F)cc4)cc3)cc2)cc1 [Example 83B, 1,6-bis-[4-(p-fluorophenylamino)-1-pyridinium]hexane dibromide] | 15.6 µg/mL | 15.6 µg/mL | 15.6 µg/mL | 31.3 µg/mL | > 125 µg/mL | > 125 µg/mL | > 62.5 µg/mL | 7.8 µg/mL | 31.3 µg/mL | 31.3 µg/mL | 31.3 µg/mL | 31.3 µg/mL | 
Fc1ccc(Nc2cc[n+](CCCCCCCC[n+]3ccc(Nc4ccc(F)cc4)cc3)cc2)cc1 [Example 84, 1,8-bis-[4-p-fluorophenylamino)-1-pyridinium]octane dibromide] | 1.95 µg/mL | 15.6 µg/mL | 7.8 µg/mL | 15.6 µg/mL | > 62.5 µg/mL | > 125 µg/mL | > 62.5 µg/mL | 7.8 µg/mL | 15.6 µg/mL | 15.6 µg/mL | 7.8 µg/mL | 15.6 µg/mL | 
Nc1cc[n+](CCCCCCCC[n+]2ccc(N)cc2)cc1 [I, 1,8-bis-(4-amino-1-pyridinium)octane dibromide, reference compound] | 31.3 µg/mL | 250 µg/mL | 125 µg/mL | 125 µg/mL | > 500 µg/mL | > 500 µg/mL | > 500 µg/mL | 31.3 µg/mL | 125 µg/mL | 125 µg/mL | 125 µg/mL | 125 µg/mL | 
Nc1cc[n+](CCCCCCCCCC[n+]2ccc(N)cc2)cc1 [II, 1,10-bis-(4-amino-1-pyridinium)decane dibromide, reference compound] |  |  |  |  |  |  |  |  |  |  |  |  | MIC (S. Aureus Smith): 7.8 µg/mL; MIC (E. coli 100/B22; read-out: MIC E. coli 100/B22, 18-20 hours at 37° C.): 62.5 µg/mL; MIC (E. coli AB1932-1): 31.3 µg/mL; MIC (E. coli Vogel): 62.5 µg/mL; MIC (K. pneum. 39645): 250 µg/mL; MIC (P. mirab. MGH-1): > 500 µg/mL; MIC (Ps. aerug. MGH-2): 500 µg/mL; MIC (S. pyogen. C203): 7.8 µg/mL; MIC (A. niger 16404): 125 µg/mL; MIC (C. albicans 10231): 250 µg/mL; MIC (C. albicans Wisc.): 62.5 µg/mL; MIC (T. menta. 9129): 15.6 µg/mL
